Measurements: patent US20220050096A1, “ANALYTE-SENSITIVE PROBES AND CONTACT LENS FOR DIAGNOSIS OF OCULAR PATHOLOGIES” (University Of Maryland, Baltimore, priority 2020, published 2022)
Read-outs that look alike come from different tables or passages of the source. Values belong to the molecule of their own block, whether it stands above or below them.

Columns and labels:
[1] = cited from earlier work
[2] = cited from earlier work; for Lifetime (ns), Ca bound form / Q, Ca bound form: bound form (in parentheses)
[3] = Chloride quenching (Stern-Volmer) of SPQ-C3 in water; assay type: physicochemical
Procedure: Quenching by Chloride. Collisional quenching occurs, for example, when SPQ-C18 (also referred to as OD-MQB (N-Octadecyl-6-methoxyquinolinium bromide)) has a diffusion collision with a chloride ion. The intensities (I) and lifetimes (6) are analyzed using the Stern-Volmer equation,
where F0 and τ0 are the intensities and lifetimes in the absence of chloride, and K is the quenching constant and the inverse of the [Cl^−] needed for 50% quenching. For collisional quenching, the value of F0/F and τ0/τ are typically the same. In solution, in the absence of lenses, the value of K=kq τ0 can be used to calculate the biomolecular quenching constant kq and the quenching efficiency. In the lenses, the [Cl−] may not be the same as in the bulk solution, but kq in the lenses is estimated by assuming the same concentration of chloride around the SPQ moiety in the lenses and in bulk solutions.
This approach for SPQ-C18 in lenses is shown in both intensities and amplitude-weighted lifetimes (FIG. 35A and FIG. 35B). […] This behavior is different from SG-PL where the binding site can be saturated at high Na^+ concentrations. In contrast, quenching of OD-MQB, both intensity and lifetime, continue to decrease as the chloride concentration increased. The steady-state intensities and intensity decays can be used to calculate the bimolecular quenching constant kq. This value can be interpreted by comparison with quenching of a fluorophore in solution without any steric barriers. For this measurement the water-soluble fluorophore 1-propenyl-6-methoxyquinolinium bromide (SPQ-C3) was used. This is the same structure of SPQ-C18 but with a shorter, three carbon propenyl chain. The unquenched lifetime (τ0) of P-MQB was 26 ns, and the Stern-Volmer constant K was 140 M^−1. From these values, we calculated the kq of 5.4×10^9 M^−1 sec^−1 which is a typical value for efficient quenching.
Emission spectra and time-dependent decays were obtained (data not shown). Stern-Volmer plots were obtained in water and in a Stenfilcon A (Aspire™) contact lens by plotting the normalized intensities with respect to the added chloride concentrations.

[4] = cited from earlier work; remark: listed apart in the source
[5] = Intensity decay analysis of 1,8-ANS in various solvents and contact lenses; assay type: physicochemical
Procedure: (§1) Fluorescence Spectroscopic Measurements. Fluorescence intensities and intensity decays were measured using a Varian™ Eclipse 4 spectrofluorometer and a FluoTime300 instrument from PicoQuant™ (Berlin, Germany) and analyzed with the EasyTau™ software. The excitation source was a 473 nm laser diode with a repetition rate of 40 MHZ and a pulse width less than 100 ps. In other embodiments, the excitation source for SG-PL was at 495 nm from a Solea™ supercontinuum laser (PicoQuant™, Germany) and a 375 nm laser diode (PDL 375, PicoQuant™), a repetition rate of 40 MHz, and a pulse width less than 100 ps. Some intensity and lifetime measurements for SG-PL (as indicated) were performed using Alba V confocal fluorescence lifetime microscopy, FLIM (ISS, Urbana, Ill.), with excitation source of a 473 nm laser diode with a repetition rate of 40 MHz and a pulse width near 250 ps.
(§2) Intensity decays were measured at the emission maximum with the band of 10 to 20 nm, analyzed in terms of the multi-exponential model:
(§3) I(t)=Σαi exp(−t/ti) (equation 1)
(§4) where Σαi=1.0 and Σfi=1.0. The term fi=αi τi is proportional to the fractional contribution of each component to the total intensity decay. The term τi/Σαi τi is the fractional contribution to the steady state emission. Here, we use the amplitude-weighted lifetime given by
In polar solvents like water, the emission of many fluorophores is shifted to longer wavelengths. In addition, the intensities can be much lower and the lifetimes much shorter. […] Table 20, below. […]

[6] = Intensity decay of Prodan in various solvents and contact lenses; assay type: physicochemical
Procedure: as §1, §2, §3, §4
The observed spectral properties of 1,8-ANS in lens are consistent with 1,8-ANS properties noticed in a non-polar environment. The probe 6-propionyl-2-dimethylaminonaphthalene (Prodan™), which is also highly sensitive to local polarity, also was used. […] In MyDay™ lenses the emission maximum is at a shorter wavelength than that in acetonitrile.

[7] = cited from earlier work; remark: listed apart in the source
[8] = cation-bound form (in parentheses)

Structure (SMILES): COc1cc2cc(-c3ccc(C(=O)O)cc3C(=O)O)oc2cc1N1CCOCCOCCN(c2cc3oc(-c4ccc(C(=O)O)cc4C(=O)O)cc3cc2OC)CCOCCOCC1 [PBF ?]
Lifetime (ns), cation-bound form [1, 8]: 0.72 ns
Q, cation-bound form [1, 8]: 0.72
Lifetime (ns), free form ([1]; free form): 0.47 ns
Q, free form ([1]; free form): 0.24

Structure (SMILES): Cc1ccc(N(CC(=O)O)CC(=O)O)c(OCCOc2cc(-c3cc4ccc(C(=O)O)cc4[nH]3)ccc2N(CC(=O)O)CC(=O)O)c1 [Indo-1]
Lifetime (ns), Ca bound form [2]: 1.66 ns
Q, Ca bound form [2]: 0.50
Lifetime (ns), Ca free form [2]: 1.40 ns
Q, Ca free form [2]: 0.38

unquenched lifetime (τ0) ([3]; in solution): 26 ns
Structure (SMILES): CC=C[n+]1cccc2cc(OC)ccc21.[Br-] [SPQ-C3, 1-propenyl-6-methoxyquinolinium bromide]
bimolecular quenching constant ([3]; in Water): 5.4e+09 M⁻¹ s⁻¹
Stern-Volmer constant K ([3]; in solution): 140 M⁻¹
bimolecular quenching constant kq ([3]; in solution, listed as P-MQB): 5.4e+09 M⁻¹ s⁻¹

Structure (SMILES): COc1cc(N(CC(=O)O)CC(=O)O)c2nc(COc3cc(C)ccc3N(CC(=O)O)CC(=O)O)ccc2c1 [Quin-2]
Lifetime (ns), Ca bound form [2]: 11.6 ns
Q, Ca bound form [2]: 0.14
Lifetime (ns), Ca free form [2]: 1.35 ns
Q, Ca free form [2]: 0.03

Structure (SMILES): O=c1ccc2nc3ccc(O)cc3oc-2c1 [Resorufin]
Lifetime (ns) τA ([4]; A form (value in parentheses)): 0.45 ns
Lifetime (ns) τB ([4]; B form): 2.92 ns
pKA [4]: ~5.7

Structure (SMILES): O=C(O)c1ccccc1-c1c2cc(F)c(=O)cc-2oc2cc(O)c(F)cc12 [Oregon-Green]
Lifetime (ns) τA ([4]; A form (value in parentheses)): 2.47 ns
QA ([4]; A form (value in parentheses)): 0.22
Lifetime (ns) τB ([4]; B form): 4.37 ns
QB ([4]; B form): 0.65
pKA [4]: 1.8

Structure (SMILES): CCN(CC)Cc1ccnc(-c2cc(CN(CC)CC)ccn2)c1.[Ru+2].c1ccc(-c2ccccn2)nc1.c1ccc(-c2ccccn2)nc1 [[Ru(deabpy)(bpy)2]^2+]
Lifetime (ns) τA ([4]; A form (value in parentheses)): 235 ns
Lifetime (ns) τB ([4]; B form): 380 ns
pKA [4]: 7.5

Structure (SMILES): O=S(=O)(O)c1cc(O)c2ccc3c(S(=O)(=O)O)cc(S(=O)(=O)O)c4ccc1c2c34 [HPTS, 8-hydroxypyrene-1,3,6-trisulfonate]
pKA [4]: 7.3

Structure (SMILES): O=S(=O)(O)c1cccc2cccc(Nc3ccccc3)c12 [1,8-ANS, 1-anilino-8-naphthalene sulfonic acid]
f1 ([5]; 1-hexanol): 0.01
f2 ([5]; 1-hexanol): 0.99
α1 ([5]; 1-hexanol): 0.08
α2 ([5]; 1-hexanol): 0.92
τ1 ([5]; 1-hexanol): 1.77 ns
τ2 ([5]; 1-hexanol): 12.02 ns
τf ([5]; 1-hexanol): 11.88 ns
τα ([5]; 1-hexanol): 11.18 ns
f1 ([5]; 25/75 MeOH/H2O): 0.98
f2 ([5]; 25/75 MeOH/H2O): 0.02
α1 ([5]; 25/75 MeOH/H2O): 0.996
α2 ([5]; 25/75 MeOH/H2O): 0.004
τ1 ([5]; 25/75 MeOH/H2O): 0.52 ns
τ2 ([5]; 25/75 MeOH/H2O): 2.36 ns
τf ([5]; 25/75 MeOH/H2O): 0.54 ns
τα ([5]; 25/75 MeOH/H2O): 0.52 ns
f1 ([5]; 50/50 MeOH/H2O): 0.85
f2 ([5]; 50/50 MeOH/H2O): 0.15
α1 ([5]; 50/50 MeOH/H2O): 0.925
α2 ([5]; 50/50 MeOH/H2O): 0.075
τ1 ([5]; 50/50 MeOH/H2O): 1.09 ns
τ2 ([5]; 50/50 MeOH/H2O): 2.33 ns
τf ([5]; 50/50 MeOH/H2O): 1.27 ns
τα ([5]; 50/50 MeOH/H2O): 1.19 ns
f1 ([5]; Acetonitrile): 1.0
α1 ([5]; Acetonitrile): 1.0
τ1 ([5]; Acetonitrile): 7.04 ns
τf ([5]; Acetonitrile): 7.04 ns
τα ([5]; Acetonitrile): 7.04 ns
f1 ([5]; Biofinity ™ lens): 0.05
f2 ([5]; Biofinity ™ lens): 0.95
α1 ([5]; Biofinity ™ lens): 0.36
α2 ([5]; Biofinity ™ lens): 0.64
τ1 ([5]; Biofinity ™ lens): 0.40 ns
τ2 ([5]; Biofinity ™ lens): 11.00 ns
τf ([5]; Biofinity ™ lens): 11.91 ns
τα ([5]; Biofinity ™ lens): 8.76 ns
f1 ([5]; EtOH): 0.02
f2 ([5]; EtOH): 0.98
α1 ([5]; EtOH): 0.05
α2 ([5]; EtOH): 0.95
τ1 ([5]; EtOH): 3.13 ns
τ2 ([5]; EtOH): 8.83 ns
τf ([5]; EtOH): 8.74 ns
τα ([5]; EtOH): 8.57 ns
f1 ([5]; MyDay ™ lens): 0.20
f2 ([5]; MyDay ™ lens): 0.80
α1 ([5]; MyDay ™ lens): 0.421
α2 ([5]; MyDay ™ lens): 0.578
τ1 ([5]; MyDay ™ lens): 4.01 ns
τ2 ([5]; MyDay ™ lens): 12.79 ns
τf ([5]; MyDay ™ lens): 11.97 ns
τα ([5]; MyDay ™ lens): 9.70 ns

Structure (SMILES): Cc1ccc(N(CC(=O)O)CC(=O)O)c(OCCOc2cc3cc(-c4ncc(C(=O)O)o4)oc3cc2N(CC(=O)O)CC(=O)O)c1 [F ? -2]
Lifetime (ns), Ca bound form [2]: 1.68 ns
Q, Ca bound form [2]: 0.49
Lifetime (ns), Ca free form [2]: 1.09 ns
Q, Ca free form [2]: 0.23

Structure (SMILES): Cc1ccc(N(CC(=O)O)CC(=O)O)c(OCCOc2cc(-c3c4cc(Cl)c(=O)cc-4oc4cc(O)c(Cl)cc34)ccc2N(CC(=O)O)CC(=O)O)c1 [Pluo-3]
Lifetime (ns), Ca bound form [2]: 1.28 ns
Lifetime (ns), Ca free form [2]: 0.04 ns

f1 ([6]; in 1-hexanol): 1.0
α1 ([6]; in 1-hexanol): 1.0
τ1 ([6]; in 1-hexanol): 3.40 ns
τf ([6]; in 1-hexanol): 3.40 ns
τα ([6]; in 1-hexanol): 3.40 ns
f1 ([6]; in Acetonitrile): 1.0
α1 ([6]; in Acetonitrile): 1.0
τ1 ([6]; in Acetonitrile): 3.38 ns
τf ([6]; in Acetonitrile): 3.38 ns
τα ([6]; in Acetonitrile): 3.38 ns
f1 ([6]; in Biofinity contact lens): 1.0
α1 ([6]; in Biofinity contact lens): 1.0
τ1 ([6]; in Biofinity contact lens): 3.98 ns
τf ([6]; in Biofinity contact lens): 3.98 ns
τα ([6]; in Biofinity contact lens): 3.98 ns
f1 ([6]; in EtOH): 1.0
α1 ([6]; in EtOH): 1.0
τ1 ([6]; in EtOH): 3.28 ns
τf ([6]; in EtOH): 3.28 ns
τα ([6]; in EtOH): 3.28 ns
f1 ([6]; in MyDay contact lens, 2 hr): 0.82
f2 ([6]; in MyDay contact lens, 2 hr): 0.18
α1 ([6]; in MyDay contact lens, 2 hr): 0.94
α2 ([6]; in MyDay contact lens, 2 hr): 0.07
τ1 ([6]; in MyDay contact lens, 2 hr): 3.81 ns
τ2 ([6]; in MyDay contact lens, 2 hr): 12.15 ns
τf ([6]; in MyDay contact lens, 2 hr): 5.34 ns
τα ([6]; in MyDay contact lens, 2 hr): 4.36 ns
f1 ([6]; in MyDay contact lens, 1 day): 0.67
f2 ([6]; in MyDay contact lens, 1 day): 0.33
α1 ([6]; in MyDay contact lens, 1 day): 0.87
α2 ([6]; in MyDay contact lens, 1 day): 0.13
τ1 ([6]; in MyDay contact lens, 1 day): 4.48 ns
τ2 ([6]; in MyDay contact lens, 1 day): 14.41 ns
τf ([6]; in MyDay contact lens, 1 day): 7.76 ns
τα ([6]; in MyDay contact lens, 1 day): 5.80 ns
f1 ([6]; in Water): 0.494
f2 ([6]; in Water): 0.51
α1 ([6]; in Water): 0.740
α2 ([6]; in Water): 0.260
τ1 ([6]; in Water): 0.69 ns
τ2 ([6]; in Water): 2.02 ns
τf ([6]; in Water): 1.36 ns
τα ([6]; in Water): 1.04 ns
Structure (SMILES): CCC(=O)c1ccc2cc(N(C)C)ccc2c1 [Prodan ™]

Structure (SMILES): COc1cc2cc(-c3ccc(C(=O)O)cc3C(=O)O)oc2cc1N1CCOCCOCCN(c2cc3oc(-c4ccc(C(=O)O)cc4C(=O)O)cc3cc2OC)CCOCC1 [SBF ?]
Lifetime (ns), cation-bound form [7, 8]: 0.47 ns
Q, cation-bound form [7, 8]: 0.087
Lifetime (ns), free form ([7]; free form): 0.27 ns
Q, free form ([7]; free form): 0.645
Kd ([7]; read-out: K (mM), binding constant): 3.8 mM
